Results reported in the CheMixHub viscosity set.
Values joined by “and” are separate entries in the source; they are usually repeats but may differ in a detail not shown here. Equal values may be shown once. ± gives the uncertainty stated by the source.

How the values were obtained:
[1] = xn = mol fraction of the nth substance listed; settings: 101 kPa

Nc1ccccc1Cl
viscosity
Settings	298.15 K	303.15 K	308.15 K	313.15 K	318.15 K
100 kPa	4.209 ± 0.089 mPa·s	3.825 ± 0.081 mPa·s	3.413 ± 0.072 mPa·s	3.06 ± 0.065 mPa·s	2.762 ± 0.059 mPa·s
101 kPa	2.973 ± 0.029 mPa·s and 2.974 ± 0.027 mPa·s	–	–	–	–

O=S(=O)(Cl)Cl
Settings	viscosity [mPa·s]
298.15 K, 101 kPa	0.685 ± 0.018

O=S1(=O)CCCC1
Settings	viscosity
298.15 K, 101.3 kPa	10.28 ± 0.13 mPa·s
308.15 K, 100 kPa	8.795 ± 0.17 mPa·s
308.15 K, 101.3 kPa	8.258 ± 0.11 mPa·s
318.15 K, 101 kPa	7.18 ± 0.72 mPa·s and 7.17 ± 0.74 mPa·s and 6.912 ± 0.037 mPa·s
318.15 K, 101.3 kPa	6.256 ± 0.085 mPa·s
323.15 K, 101.33 kPa	6.346 ± 0.032 mPa·s

OC1COCOC1
101 kPa
Settings	viscosity
298.15 K	13.11 ± 0.29 mPa·s
308.15 K	8.963 ± 0.2 mPa·s
318.15 K	6.508 ± 0.15 mPa·s and 6.58 ± 0.15 mPa·s

c1ccc2sccc2c1
101 kPa
Settings	viscosity [mPa·s]
308.15 K	2.94 ± 0.4
318.15 K	2.06 ± 0.13

OC1COCOC1 + OCC(O)CO
viscosity [mPa·s], [1]
Settings	x1 = 0.0998	x1 = 0.2002	x1 = 0.3	x1 = 0.3996	x1 = 0.5003	x1 = 0.5984	x1 = 0.7011	x1 = 0.8002	x1 = 0.9
298.15 K	832.9 ± 48	733.8 ± 41	627.8 ± 33	520 ± 26	421.6 ± 19	329.6 ± 14	242.5 ± 9.2	168.5 ± 5.5	92.07 ± 2.4
308.15 K	378.7 ± 17	330.3 ± 15	278.4 ± 12	227 ± 8.9	181 ± 6.6	134.8 ± 4.6	99.8 ± 3.1	67.79 ± 2	40.63 ± 1.1
318.15 K	190 ± 7.2	163.4 ± 5.9	139 ± 4.8	110.6 ± 3.6	85.95 ± 2.8	62.08 ± 1.9	44.85 ± 1.4	32.54 ± 0.98	20.88 ± 0.6

O=S1(=O)CCCC1 + OCCO
[1], 303.15 K
Settings	viscosity [mPa·s]
x1 = 0.0503	11.92 ± 0.083
x1 = 0.0993	10.75 ± 0.077
x1 = 0.2006	8.926 ± 0.068
x1 = 0.2984	7.669 ± 0.062
x1 = 0.393	6.857 ± 0.059
x1 = 0.4553	6.555 ± 0.058
x1 = 0.5015	6.443 ± 0.058
x1 = 0.5484	6.443 ± 0.06
x1 = 0.6038	6.548 ± 0.062
x1 = 0.7048	7.013 ± 0.069
x1 = 0.8065	7.683 ± 0.079
x1 = 0.9034	8.532 ± 0.091
x1 = 0.9426	9.018 ± 0.098

OC1COCOC1 + OCCO
viscosity [mPa·s], [1]
Settings	x1 = 0.1002	x1 = 0.2002	x1 = 0.3	x1 = 0.4	x1 = 0.5004	x1 = 0.5997	x1 = 0.7	x1 = 0.8001	x1 = 0.8999
298.15 K	16.97 ± 0.36	16.11 ± 0.35	14.94 ± 0.32	13.85 ± 0.3	12.88 ± 0.28	12.74 ± 0.28	12.81 ± 0.28	12.79 ± 0.28	12.89 ± 0.28
308.15 K	11.6 ± 0.25	10.98 ± 0.24	10.23 ± 0.23	9.473 ± 0.21	8.583 ± 0.19	8.457 ± 0.19	8.572 ± 0.19	8.812 ± 0.2	8.878 ± 0.2
318.15 K	8.193 ± 0.18	7.647 ± 0.17	7.214 ± 0.16	6.665 ± 0.15	6.111 ± 0.14	5.995 ± 0.13	5.915 ± 0.13	6.167 ± 0.14	6.474 ± 0.14
